Converted amounts (≈) assume the structure as drawn.
Tests used:
Enterococcus sp. = assay: standard agar dilution assay (MIC); type: cell-based; conditions: UC 701; 24 hours, 28° to 37° C.
Protocol: (§1) The antibacterial assay is a standard agar dilution assay. The MIC is determined by standard methods using two-fold dilutions of the antibiotic in Brain Heart Infusion Broth (Difco Lab., Detroit, Michigan). The inocula are overnight cultures of the test organisms, diluted so that the final population contains approximately 10^5 cells/ml. The solutions are incubated at 28° to 37° C. for 24 hours. The lowest antibiotic concentration which allows no growth=MIC or minimum inhibitory concentration.

Escherichia coli = assay: standard agar dilution assay (MIC); type: cell-based; conditions: UC 45; 24 hours, 28° to 37° C.
Protocol: as §1

Klebsiella pneumoniae = assay: standard agar dilution assay (MIC); type: cell-based; conditions: UC 58; 24 hours, 28° to 37° C.
Protocol: as §1

Pseudomonas aeruginosa = assay: standard agar dilution assay (MIC); type: cell-based; conditions: UC 95; 24 hours, 28° to 37° C.
Protocol: as §1

[1] = test system: Salmonella schottmuelleri; assay: standard agar dilution assay (MIC); type: cell-based; conditions: UC 126; 24 hours, 28° to 37° C.
Protocol: as §1

Staphylococcus aureus = assay: standard agar dilution assay (MIC); type: cell-based; conditions: 24 hours, 28° to 37° C.
Protocol: as §1

Streptococcus faecalis = assay: standard agar dilution assay (MIC); type: cell-based; conditions: UC 694; 24 hours, 28° to 37° C.
Protocol: as §1

Streptococcus pneumoniae = assay: standard agar dilution assay (MIC); type: cell-based; conditions: UC 41; 24 hours, 28° to 37° C.
Protocol: as §1

Streptococcus pyogenes = assay: standard agar dilution assay (MIC); type: cell-based; conditions: UC 152; 24 hours, 28° to 37° C.
Protocol: as §1

H. influenzae = assay: standard agar-dilution method, MIC against ampicillin-resistant and ampicillin-susceptible H. influenzae type b; type: cell-based
Protocol: Antibiotic U-62,162 was also tested for activity against a group of ampicillin-resistant and ampicillin-susceptible H. influenzae type b.
A solution of the compound was prepared in dimethylsulfoxide (DMSO), diluted in Brain Heart Infusion Broth (BHIB) and MIC's were determined using the standard agar-dilution method.

Gram-positive bacteria = assay: antibacterial activity against Gram-positive bacteria; type: cell-based
Protocol: as §1

S. aureus 6029 = assay: disc plate assay (zone of inhibition, BU); type: cell-based; conditions: essentially pure crystalline, after countercurrent distribution
Protocol: Buffered (pH 5.8) silica gel is prepared by treating 1 kg of silica gel 60 with a solution of 54.4 g of KH2 PO4 in 800 ml of water. This is dried 16 hours at 110°. A 1 inch (diameter) column containing 60 g of buffered (pH 5.8) silica gel is poured in a slurry with chloroform. To this is added 250 mg of crude U-62,162, prepared as described above, in chloroform. The column is developed first with 120 ml of CHCl3, then with CHCl3 :MeOH (94:6 v/v). Fractions of 5 ml each are collected beginning when the mixed solvent is introduced. They are assayed by plating 12 mm discs containing […] aliquots on S. aureus 6029 trays. Fractions 55-65, containing most of the activity, are pooled and evaporated, 90 mg, […], 17,200 total BU.
A preparation of antibiotic U-62,162, as described above, (3 g) is distributed for 300 transfers in the two-phase solvent system afforded by ethyl acetate:ethanol (95%):cyclohexane:water (2:3:3:2 v/v). Phase volumes are 10 ml each. Fractions 120-150 are combined and the residue from these after evaporation affords essentially pure crystalline antibiotic U-62,162, 1 g, assaying 800-1500 BU/mg against S. aureus 6029. A BU is the amount of material distributed on a 12 mm disc which will give a 20 mm zone of inhibition.

Solubilities = type: physicochemical; conditions: lower alcohols (1-4 carbons), esters, ethers, aromatic hydrocarbons, dimethylformamide, dimethylsulfoxide, lower ketones (3-6 carbons)
stability to pH = type: physicochemical; conditions: pH 8.5 and higher

CC(C)=CC(C)CC(C)/C=C/C(=O)NC1=CC(O)(CCCCC(=O)O)C2OC2C1=O (centres unmarked) [U-62,162]
Minimum Inhibitory Concentration (Enterococcus sp.): 7.8 µg/mL
Minimum Inhibitory Concentration (Escherichia coli): > 1000 µg/mL
Minimum Inhibitory Concentration (Klebsiella pneumoniae): > 1000 µg/mL
Minimum Inhibitory Concentration (Pseudomonas aeruginosa): > 1000 µg/mL
Minimum Inhibitory Concentration [1]: > 1000 µg/mL
Minimum Inhibitory Concentration (Staphylococcus aureus; UC 76): 1.0 µg/mL
Minimum Inhibitory Concentration (Staphylococcus aureus; UC 6685): 1.0 µg/mL
Minimum Inhibitory Concentration (Staphylococcus aureus; UC 6690): 1.0 µg/mL
Minimum Inhibitory Concentration (Streptococcus faecalis): 7.8 µg/mL
Minimum Inhibitory Concentration (Streptococcus pneumoniae): 1.0 µg/mL
Minimum Inhibitory Concentration (Streptococcus pyogenes): 125 µg/mL
MIC (H. influenzae; UC 6482, ampicillin susceptible): 62.5 µg/mL (≈ 149 µM)
MIC (H. influenzae; UC 6483, ampicillin resistant): 31.25 µg/mL (≈ 74.5 µM)
MIC (H. influenzae; UC 6484, ampicillin resistant): 31.25 µg/mL (≈ 74.5 µM)
MIC (H. influenzae; UC 6485, ampicillin susceptible): 31.25 µg/mL (≈ 74.5 µM)
MIC (H. influenzae; UC 6486, ampicillin susceptible): 31.25 µg/mL (≈ 74.5 µM)
MIC (H. influenzae; UC 6582, ampicillin resistant): 31.25 µg/mL (≈ 74.5 µM)
MIC (H. influenzae; UC 6583, ampicillin resistant): 31.25 µg/mL (≈ 74.5 µM)
MIC (H. influenzae; UC 6585, ampicillin resistant): 31.25 µg/mL (≈ 74.5 µM)
MIC (H. influenzae; UC 6586, ampicillin resistant): 31.25 µg/mL (≈ 74.5 µM)
MIC (H. influenzae; UC 6587, ampicillin resistant): 31.25 µg/mL (≈ 74.5 µM)
MIC (H. influenzae; UC 6589, ampicillin resistant): 31.25 µg/mL (≈ 74.5 µM)
MIC (H. influenzae; UC 6592, ampicillin resistant): 15.6 µg/mL (≈ 37.2 µM)
MIC (H. influenzae; UC 6595, ampicillin resistant): 31.25 µg/mL (≈ 74.5 µM)
MIC (H. influenzae; UC 6596, ampicillin resistant): 31.25 µg/mL (≈ 74.5 µM)
MIC (H. influenzae; UC 6597, ampicillin susceptible): 31.25 µg/mL (≈ 74.5 µM)
MIC (H. influenzae; UC 6598, ampicillin susceptible): 31.25 µg/mL (≈ 74.5 µM)
activity against H. influenzae type b cultures (in words) (H. influenzae; all of the cultures tested): moderate activity
activity against various Gram-positive bacteria (in words) (Gram-positive bacteria): active
potency (BU; amount on a 12 mm disc which will give a 20 mm zone of inhibition) (S. aureus 6029): 800-1500 BU/mg
Solubilities (Solubilities): soluble
stability (stability to pH): unstable
